Assay results from patent US20230233569A1 (Revolution Medicines, Inc., priority 2020, published 2023).

How the values were obtained:
[1] = system: K-Ras G12C (NCI-H358 cells); assay: Potency assay: pERK (AlphaLISA SureFire or In-Cell Western); type: cell-based; conditions: Homo sapiens, NCI-H358; H358 KRAS G12C; read-out: pERK EC50
In short: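 NCI-H358 cells plated overnight, then treated 4 h at 37 °C with 10-point 3-fold DMSO dilutions (10 mM top stock), in duplicate. pERK1/2 read by AlphaLISA SureFire Ultra lysate assay or by In-Cell Western with DRAQ5 DNA stain. IC50 from 4-parameter sigmoidal fit of signal vs log concentration.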

KRAS G12S = KRAS G12S (Homo sapiens, UniProt P01116+P62937, G12S); assay: Disruption of BRAF RBD interaction with Ras (FRET / MOA assay, with Cyclophilin A); type: biochemical; conditions: read-out: KRAS G12S FRET data, IC50
KRAS G12S, sequence (P01116 1-169 isoform P01116-2 G12S limits assumed): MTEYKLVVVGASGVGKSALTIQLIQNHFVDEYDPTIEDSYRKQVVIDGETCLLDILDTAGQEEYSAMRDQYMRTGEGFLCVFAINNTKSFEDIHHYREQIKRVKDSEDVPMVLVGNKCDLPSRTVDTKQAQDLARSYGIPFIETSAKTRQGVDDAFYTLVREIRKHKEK
KRAS G12S, sequence (P62937 whole entry): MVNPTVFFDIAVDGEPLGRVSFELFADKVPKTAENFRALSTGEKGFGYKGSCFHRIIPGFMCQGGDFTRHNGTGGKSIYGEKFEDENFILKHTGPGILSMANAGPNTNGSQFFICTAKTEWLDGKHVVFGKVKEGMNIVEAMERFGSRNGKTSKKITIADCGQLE
In short: (§1)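 TR-FRET readout: a drop in ratio relative to DMSO wells marks disruption of the K-Ras:BRAF RBD complex via compound-induced K-Ras–Cyclophilin A ternary complex. Dosing used ten 3-fold steps from 30 μM final, 3 h at 25 °C, then Eu-anti-His 10 nM plus APC-anti-GST 50 nM for another 1.5 h. Values are IC50s.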

KRAS G12V = KRAS G12V (Homo sapiens, UniProt P01116+P62937, G12V); assay: as above; type: biochemical; conditions: KRAS G12V; read-out: KRAS G12V FRET data IC50
KRAS G12V, sequence (P01116 1-169 isoform P01116-2 G12V limits assumed): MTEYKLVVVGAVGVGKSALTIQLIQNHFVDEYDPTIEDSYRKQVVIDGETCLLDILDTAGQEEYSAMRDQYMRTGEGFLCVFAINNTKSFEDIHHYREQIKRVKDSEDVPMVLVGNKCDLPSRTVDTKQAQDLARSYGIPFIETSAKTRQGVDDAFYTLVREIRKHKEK
KRAS G12V, sequence (P62937 whole entry): as the sequence (P62937 whole entry) above
In short: as §1

KRAS G13C = KRAS G13C (Homo sapiens, UniProt P01116+P62937, G13C); assay: as above; type: biochemical; conditions: KRAS G13C; read-out: KRAS G13C FRET data IC50
KRAS G13C, sequence (P01116 1-169 isoform P01116-2 G13C): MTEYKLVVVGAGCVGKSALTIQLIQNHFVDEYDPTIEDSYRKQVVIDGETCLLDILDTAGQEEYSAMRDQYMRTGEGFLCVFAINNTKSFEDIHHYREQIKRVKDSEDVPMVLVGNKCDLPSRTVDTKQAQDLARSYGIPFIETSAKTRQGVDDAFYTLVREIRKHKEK
KRAS G13C, sequence (P62937 whole entry): as the sequence (P62937 whole entry) above
In short: as §1

KRAS G13D = KRAS G13D (Homo sapiens, UniProt P01116+P62937, G13D); assay: as above; type: biochemical; conditions: KRAS G13D; read-out: KRAS G13D FRET data IC50
KRAS G13D, sequence (P01116 1-169 isoform P01116-2 G13D limits assumed): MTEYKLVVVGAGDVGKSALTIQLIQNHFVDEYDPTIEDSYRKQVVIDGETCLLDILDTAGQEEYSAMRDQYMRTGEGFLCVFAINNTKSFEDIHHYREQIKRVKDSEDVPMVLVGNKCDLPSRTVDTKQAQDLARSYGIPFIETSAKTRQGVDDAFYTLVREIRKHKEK
KRAS G13D, sequence (P62937 whole entry): as the sequence (P62937 whole entry) above
In short: as §1

KRAS G12D = KRAS G12D (Homo sapiens, UniProt P01116+P62937, G12D); assay: as above; type: biochemical; conditions: read-out: KRAS G12D FRET data, IC50
KRAS G12D, sequence (P01116 1-169 isoform P01116-2 G12D limits assumed): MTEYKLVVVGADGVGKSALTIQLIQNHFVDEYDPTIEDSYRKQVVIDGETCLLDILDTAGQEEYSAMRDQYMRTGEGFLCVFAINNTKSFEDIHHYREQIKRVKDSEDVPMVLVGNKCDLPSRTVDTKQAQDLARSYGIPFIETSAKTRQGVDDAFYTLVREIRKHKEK
KRAS G12D, sequence (P62937 whole entry): as the sequence (P62937 whole entry) above
In short: as §1

KRAS G12C = KRAS G12C (Homo sapiens, UniProt P01116+P62937, G12C); assay: as above; type: biochemical; conditions: KRAS G12C; read-out: KRAS G12C FRET data IC50
KRAS G12C, sequence (P01116 1-169 isoform P01116-2 G12C): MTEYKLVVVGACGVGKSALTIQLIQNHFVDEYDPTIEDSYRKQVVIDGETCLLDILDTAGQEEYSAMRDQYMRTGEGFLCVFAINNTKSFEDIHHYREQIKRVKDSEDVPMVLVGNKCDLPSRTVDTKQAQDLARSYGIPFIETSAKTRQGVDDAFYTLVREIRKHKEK
KRAS G12C, sequence (P62937 whole entry): as the sequence (P62937 whole entry) above
In short: as §1

NRAS G12C = NRAS G12C (Homo sapiens, UniProt P01111+P62937, G12C); assay: as above; type: biochemical; conditions: NRAS G12C; read-out: NRAS G12C FRET data IC50
NRAS G12C, sequence (P01111 whole entry G12C): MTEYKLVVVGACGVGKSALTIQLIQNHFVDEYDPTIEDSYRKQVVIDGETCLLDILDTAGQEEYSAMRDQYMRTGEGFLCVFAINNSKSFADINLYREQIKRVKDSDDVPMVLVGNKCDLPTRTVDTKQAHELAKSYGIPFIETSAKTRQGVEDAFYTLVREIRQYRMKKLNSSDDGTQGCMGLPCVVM
NRAS G12C, sequence (P62937 whole entry): as the sequence (P62937 whole entry) above

KRAS WT = KRAS WT (Homo sapiens, UniProt P01116+P62937); assay: as above; type: biochemical; conditions: KRAS WT; read-out: KRAS WT FRET data IC50
KRAS WT, sequence (P01116 1-169 isoform P01116-2 limits assumed): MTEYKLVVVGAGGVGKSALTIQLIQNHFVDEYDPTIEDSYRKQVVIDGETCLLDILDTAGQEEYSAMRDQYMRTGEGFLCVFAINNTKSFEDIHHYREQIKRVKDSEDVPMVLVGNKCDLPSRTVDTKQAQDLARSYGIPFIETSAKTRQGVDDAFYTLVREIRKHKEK
KRAS WT, sequence (P62937 whole entry): as the sequence (P62937 whole entry) above
In short: as §1

EC50 [1]: < 5000 nM | IC50 (KRAS G12S): 1000 to 10000 nM | IC50 (KRAS G12V): 1000 to 10000 nM | IC50 (KRAS G13C): 10 to 100 nM | IC50 (KRAS G13D): 1000 to 10000 nM | IC50 (KRAS G12D): 1000 to 10000 nM | IC50 (KRAS G12C): 10 to 100 nM | IC50 (NRAS G12C): 10 to 100 nM | IC50 (KRAS WT): 100 to 1000 nM
SMILES: C=CC(=O)N1CCO[C@H]2CN(C(=O)N(C)[C@H](C(=O)N[C@H]3Cc4cccc(c4)-c4ccc5c(c4)c(c(-c4cccnc4[C@H](C)OC)n5CC)CC(C)(C)COC(=O)C4CCCN(N4)C3=O)C(C)C)C[C@H]21 (stereo partly drawn) [Example A610]
